Patent US9057090B2, “Method of identifying an agent for inhibiting odor of pyrazine derivatives” (Kao Corporation, priority 2012, dated 2015)

Molecular target: T1, olfactory receptor OR5K1 (Homo sapiens, UniProt Q8NHB7)
T1 construct: expressed in transfected cells; host or cells: HEK293
T1 sequence (Q8NHB7 1-308): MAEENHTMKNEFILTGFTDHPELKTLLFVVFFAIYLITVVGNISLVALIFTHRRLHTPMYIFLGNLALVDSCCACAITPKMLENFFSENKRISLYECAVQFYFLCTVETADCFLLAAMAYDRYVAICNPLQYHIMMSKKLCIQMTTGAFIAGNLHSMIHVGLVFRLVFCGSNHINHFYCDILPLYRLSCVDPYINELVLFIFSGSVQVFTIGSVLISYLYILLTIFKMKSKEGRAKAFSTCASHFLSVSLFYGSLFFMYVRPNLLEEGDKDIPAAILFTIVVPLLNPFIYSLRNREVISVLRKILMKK
Assay: Luciferase reporter gene assay: response of olfactory receptor to pyrazine derivatives
Type: cell-based
Details: for response of OR5K1, dependency on concentration: 0, 3, 10, 30, 100, 300 and 1000 μM, HEK293 cells expressing OR5K1 with RTP1S variant, FIG. 2
Procedure: HEK293 cells expressing 373 types of human olfactory receptors were produced. A reaction solution having a composition shown in Table 1 was prepared and left to stand in a clean bench for 15 min and then was dispensed in each well of a 96-well plate (Becton, Dickinson and Company). Subsequently, HEK293 cells (100 μL, 3×10^5 cells/cm^2) were seeded in each well and cultured in an incubator at 37° C. and 5% CO2 for 24 hr.
An olfactory receptor expressed in HEK293 cells couples with endogenous Gas in the cells to activate adenylate cyclase and thereby increases the amount of intracellular cAMP. In this study, the response of a pyrazine derivative was measured by luciferase reporter gene assay which monitors an increase in the amount of intracellular cAMP as the luminescence value derived from a firefly luciferase gene (fluc2P-CRE-hygro). A Renilla luciferase gene was fused downstream of a CMV promoter (hRluc-CMV) and was also introduced to HEK293 cells as an internal standard to correct errors in transgenic efficiency and number of cells.
The culture medium was removed from the culture produced in the above 3), and 75 μL of a solution prepared with a CD293 medium (Invitrogen Inc.) so as to contain a pyrazine derivative (1 mM 2,6-dimethylpyrazine) was added thereto. The cells were cultured in a CO2 incubator for 2.5 hr to sufficiently express the luciferase gene in the cells. The luciferase activity was measured with a Dual-Glo™ luciferase assay system (Promega Corporation) in accordance with the operating manual of the system. The fold increases were calculated by dividing the luminescence value derived from firefly luciferase induced by stimulation with a pyrazine derivative at each concentration by the luminescence value in cells not stimulated with the pyrazine derivative and were used as an index of response strength.
Olfactory receptor OR5K1 (SEQ ID NO: 2) was expressed in HEK293 cells together with an RTP1S variant (SEQ ID NO: 4) by the same procedure as in Example 1, and the dependency of the response on the concentration (0, 3, 10, 30, 100, 300, and 1000 μM) of various pyrazine compounds was investigated. The pyrazine compounds used in this Example were pyrazine and pyrazine derivatives selected from the group consisting of 2-methylpyrazine, 2,3-dimethylpyrazine, 2,5-dimethylpyrazine, 2,3,5-trimethylpyrazine, 2,3,5,6-tetramethylpyrazine and 2-ethylpyrazine.

Row | Structure (SMILES) | response of OR5K1, dependency on concentration | response of the 373 types of olfactory receptors to the pyrazine derivative (1 mM, HEK293 cells expressing human olfactory receptors, FIG. 1)
1 | Cc1nc(C)c(C)nc1C [2,3,5,6-tetramethylpyrazine] | responded in a dose-dependent manner | 
2 | Cc1cncc(C)n1 [2,6-dimethylpyrazine] | responded in a dose-dependent manner | only olfactory receptor OR5K1 responded
3 | Cc1cnccn1 [2-methylpyrazine] | responded in a dose-dependent manner | 
4 | CCc1cnccn1 [2-ethylpyrazine] | responded in a dose-dependent manner | 
5 | Cc1nccnc1C [2,3-dimethylpyrazine] | responded in a dose-dependent manner | 
6 | Cc1cnc(C)c(C)n1 [2,3,5-trimethylpyrazine] | responded in a dose-dependent manner | 
7 | c1cnccn1 [pyrazine] | did not respond | 
8 | Cc1cnc(C)cn1 [2,5-dimethylpyrazine] | responded in a dose-dependent manner | 
